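96-well plates; 48 h exposure; 5 concentrations. Endpoints by linear interpolation between flanking doses. Not reached: highest tested concentration assigned. GI50 marks 50% less growth. TGI: concentration producing complete growth inhibition.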 *1 amine or outer side, *2 acyl side, *3 side chain or, on linkers, in order; H or OH if unused. Where a SMILES comes first, the peptide text is derived from it. Bridges are numbered along the chain shown (N, C = ends). [ ]: non-standard residue; d: D form. The star is where a group is joined. ξ: configuration not given here. Phe(3,5-F2) = N[C@@H](Cc1cc(F)cc(F)c1)C(=O)O; ξThr(3S) = C[C@H](O[*:3])C(N[*:1])C(=O)[*:2]; X25 = C[C@H]1OCCN([*:1])[C@@H]1C(=O)[*:2]; Phe(3-F) = N[C@@H](Cc1cccc(F)c1)C(=O)O; Pro(4R-Me) = C[C@H]1CN[C@H](C(=O)O)C1; aThr = C[C@H](O)[C@H](N)C(=O)O; X24 = O=S(=O)(F)Oc1ccc(N*)cc1; Pip = O=C(O)[C@@H]1CCCCN1; X8 = CCc1ccc(N*)c(F)c1; CO = O=C([*:1])[*:2]
Tested on: MDA-MB-468 breast
Test: inhibition of tumour cell growth, NCI panel, 48 h

SMILES	GI50	TGI
O=C(NNc1nc2cc(F)ccc2n2c(CN3CCC(O)C3)ccc12)c1cnccn1 (centres undefined)	815 nM	7630 nM
COc1ccc(-c2cnc(-c3ccncc3-c3cccc(OC)c3)o2)cc1	178 nM	10400 nM
NC(=O)c1nc(-c2c(F)cccc2Cl)oc1Nc1ccc(C(=O)N2CCOCC2)cc1	4330 nM	36700 nM
CN(C)CCNC(=O)Nc1ccc(N(C)c2ccnc(Nc3ccc(CS(C)(=O)=O)cc3)n2)cc1	> 13300 nM	> 25000 nM
COC(=O)c1ccc(NC(N)=NCCC(C)(C)c2ccc(C(F)(F)F)cc2)nc1	1100 nM	2790 nM
CCOC(=O)[C@@H](C)C[C@H](Cc1ccccc1)NC(=O)c1csc([C@@H](C[C@H](C(C)C)N(C)C(=O)CNC(=O)[C@H]2CCCCN2C)OC(C)=O)n1	216 nM	736 nM
COc1cccc(-c2cc(=O)c3cc(N4CCN(C)CC4)ccc3[nH]2)c1	6030 nM	> 100000 nM
O=C1Nc2ccc(-c3cccnc3)cc2/C1=C/c1cc(Br)c(O)c(Br)c1	6020 nM	16100 nM
O=C(Nc1ccc(-n2cc(-c3ccncc3)c(-c3ccc(O)c(Cl)c3)n2)cc1)Nc1cc(C(F)(F)F)cc(C(F)(F)F)c1	3280 nM	13200 nM
C[C@@H]1C[C@H]2C(=O)O[C@@H](C)C(NC(=O)[C@H](Cc3cc(F)cc(F)c3)NC(=O)Nc3ccc(OS(=O)(=O)F)cc3)C(=O)N3CCC[C@H]3C(=O)N3CCO[C@H](C)[C@H]3C(=O)N[C@@H](CO)C(=O)N2C1 (stereo partly drawn) ({X24-CO}-[Phe(3,5-F2)][ξThr(3S)]P[X25]S[Pro(4R-Me)]; ester 2-C)	416 nM	5810 nM
NC1=NC(c2ccccc2Cl)c2c(n[nH]c2N)N1 (centres undefined)	11100 nM	99600 nM
CN(C)CCCOc1ccc(NC2=C(Cl)C(=O)C(Nc3ccc(OCCCN(C)C)cc3)=C(Cl)C2=O)cc1	360 nM	1260 nM
CCc1ccc(NC(=O)N[C@@H](Cc2cccc(F)c2)C(=O)N[C@@H]2C(=O)N3CCC[C@H]3C(=O)N3CCCC[C@H]3C(=O)N[C@@H](C)C(=O)N3C[C@H](C)C[C@H]3C(=O)O[C@H]2C)c(F)c1 ({X8-CO}-[Phe(3-F)][aThr]P[Pip]A[Pro(4R-Me)]; ester 2-C)	129 nM	799 nM
CCN(CC)CCCC(Nc1c2ccc(Cl)cc2nc2ccc(OC)cc12)c1ccc(Cl)cc1 (centres undefined)	352 nM	1190 nM
CCOC(=O)c1cc(C(=O)c2ccc(OC)c(OC)c2)n2c1ccc1ccc3cccnc3c12	2830 nM	> 100000 nM
N#CN1CC[C@H](C(=O)Nc2ncc(-c3ccccc3)s2)C1	177 nM	423 nM
CO[C@H]1C(=O)[C@]2(C)[C@@H](OC)C[C@H]3OC[C@@]3(OC(C)=O)[C@H]2[C@H](OC(=O)c2ccccc2)[C@]2(O)C[C@H](OC(=O)[C@H](O)[C@@H](NC(=O)OC(C)(C)C)c3ccccc3)C(C)=C1C2(C)C	< 10 nM	419 nM
COc1cc([C@@H]2c3cc4c(cc3[C@H](SC(=N)N)[C@H]3COC(=O)[C@H]23)OCO4)cc(OC)c1OC	106 nM	2570 nM
OCc1ccc(-c2ccc(-c3ccc(CO)o3)o2)o1	764 nM	3050 nM
Cc1ccc2ccc3c4ccccc4ccc3c2c1	16100 nM	40400 nM
C[C@]12CCc3nc(Nc4ccc(O)cc4)sc3C1=CC[C@@H]1[C@@H]2CC[C@]2(C)/C(=N/NC(N)=S)CC[C@@H]12	1300 nM	3020 nM
O=c1[nH]c2ccccc2cc1-c1nnc(Cc2ccccc2)o1	2290 nM	9870 nM
O=c1[nH]c(=S)[nH]c(O)c1/C=C1\C=Nc2ccccc21	14400 nM	31100 nM

SMILES	GI50	TGI
COc1cc(OC)c(S(N)(=O)=O)cc1C(=O)/C=C/c1ccc(C)cc1	1960 nM	7030 nM
C/C(=C/CCC(C)[C@@H]1CC[C@]2(C)C3=C(CC[C@@]12C)[C@@]1(C)CCC(=O)C(C)(C)[C@@H]1CC3)C(=O)O (some centres undefined)	1110 nM	2710 nM
CC[n+]1c(-c2ccccc2)c2cc(N)ccc2c2ccc(N)cc21	160 nM	609 nM
Cc1cc(NC(=O)NC(=O)c2ccccc2NC(=O)CN(C)C)ccc1Oc1ncc(Br)cn1	3620 nM	> 100000 nM
O=C(CI)NC(=O)NC(=O)NCc1ccccc1	2120 nM	4660 nM
Cc1ccccc1Nc1cc(O)c2c(=O)cc(-c3ccccc3)oc2c1	379 nM	3030 nM
COc1ccc([C@@]23Oc4cc(OC)cc(OC)c4[C@]2(O)[C@H](O)[C@H](C(=O)N(C)C)[C@H]3c2ccccc2)cc1	15.1 nM	141 nM
COC(=O)[C@]12CC[C@@H](C)[C@H](C)[C@@H]1C1=CC[C@@H]3[C@@]4(C)C(C=O)=C[C@@](C)(COS(C)(=O)=O)C4=CC[C@@]3(C)[C@]1(C)CC2	247 nM	752 nM
O=C(Nc1nc2ccc(S(=O)(=O)Nc3ccc(C4(C(F)(F)F)CC4)cc3)cc2[nH]1)c1cnccn1	515 nM	5740 nM
Cn1cc(-c2ccc3ncc(-c4ccc(CC(=O)Nc5cc(C(C)(C)C)nn5C)cc4)cc3c2)cn1	799 nM	> 20000 nM
CCc1ccc(Oc2c(-c3ccc(OCc4ccc(Cl)cc4)cc3O)nn(C)c2C(F)(F)F)cc1	337 nM	1620 nM
CC(=O)Nc1cccc(C#Cc2cncnc2Nc2ccc(OCc3cccc(F)c3)c(Cl)c2)c1	1140 nM	5670 nM
CN(C)C1C(=O)C(C(N)=O)=C(O)C2(O)C(=O)C3=C(O)c4c(O)cccc4C(C)(O)C3CC12.[Cl][Sb]([Cl])[Cl] (centres undefined)	2500 nM	8830 nM
Nc1ncnc2c1c(-c1ccc(Oc3ccccc3)cc1)nn2CC1SSCC1O (centres undefined)	801 nM	2020 nM
Nc1c(C(=O)Nc2ccccc2)sc2nc3c(cc12)C(=O)CCC3	161 nM	611 nM
O=C(Nc1ccc(-n2cc(-c3ccncc3)c(-c3ccc(Cl)c(O)c3)n2)cc1)c1cc(C(F)(F)F)cc(C(F)(F)F)c1	2160 nM	7600 nM
N#Cc1cc(F)cc(Oc2ccc(S(=O)(=O)C(F)F)c3c2CC(F)(F)[C@H]3O)c1	16600 nM	66900 nM
CCN1C(=O)N(CC)C2C1NC(=S)N2/N=C/C=C/c1ccccc1 (centres undefined)	54.6 nM	–
C/C(=N/NC(N)=S)c1ccc(Nc2nc(SCC(C)C)nc(-c3ccc(F)cc3)c2C#N)cc1	1060 nM	7700 nM
C#COc1cccc(Nc2ncnc3cc(NC(=O)[C@@H](C)Cl)ccc23)c1	13500 nM	50800 nM
Cc1ccc(C(=O)Nc2ccc(Oc3cc4cnn(C)c4cc3-c3cn[nH]c3)c(F)c2)c(=O)n1-c1ccc(F)cc1	3200 nM	> 100000 nM
S=C(Sc1ccc(Cl)cc1)Sc1ccc(Cl)cc1	2300 nM	6900 nM

— PubChem BioAssay (NCI)
